According to ChEMBL document CHEMBL4043247, “Design, synthesis and biological evaluation of 8-substituted-6-hydrazonoindolo[2,1-b]quinazolin-12(6H)-one scaffolds as potential cytotoxic agents: IDO-1 targeting molecular docking studies” (Bioorg Med Chem Lett, 2017):

Tests used:
MCF7 = assay: Cytotoxicity against human MCF7 cells after 6 days by MTT assay; type: functional, cell-based; conditions: MCF7, 144 h
A549 = assay: Cytotoxicity against human A549 cells after 6 days by MTT assay; type: functional, cell-based; conditions: A549, 144 h
HeLa = assay: Cytotoxicity against human HeLa cells after 6 days by MTT assay; type: functional, cell-based; conditions: 144 h
[1] = Antioxidant activity assessed as DPPH radical scavenging activity incubated for 30 mins under dark condition by UV-vis spectrophotometric method; type: functional
HEK293 = assay: Cytotoxicity against HEK293 cells after 6 days by MTT assay; type: cell-based; conditions: Homo sapiens, HEK293, 144 h

SMILES | IC50 [1] [µM] | IC50 (MCF7) [µM] | IC50 (A549) [µM] | IC50 (HeLa) [µM] | IC50 (HEK293) [µM]
CC(/C=C(\O)c1ccccc1)=N\N=C1\c2cc(F)ccc2-n2c1nc1ccccc1c2=O | 20.1 | 20.4 | 32 | 24.5 | –
N/N=C1/c2cc(-c3ccncc3)ccc2-n2c1nc1ccccc1c2=O | 11.2 | 50.4 | 47.8 | 44.1 | –
CC(/C=C(\O)c1ccccc1)=N\N=C1\c2cc(I)ccc2-n2c1nc1ccccc1c2=O | 11.6 | 19.9 | 20.4 | 18.8 | 82.5
N/N=C1/c2cc(F)ccc2-n2c1nc1ccccc1c2=O | 16.4 | 54.6 | 44.6 | 67.7 | –
COc1cccc(/C=N/N=C2/c3cc(Cl)ccc3-n3c2nc2ccccc2c3=O)c1O | 22.2 | 35.4 | 40.8 | 36.6 | –
COc1cccc(/C=N/N=C2/c3cc([N+](=O)[O-])ccc3-n3c2nc2ccccc2c3=O)c1O | 28.7 | 34.2 | 40.1 | 38 | –
CC(/C=C(\O)c1ccccc1)=N\N=C1\c2cc([N+](=O)[O-])ccc2-n2c1nc1ccccc1c2=O | 29.7 | 31.5 | 28.4 | 33.1 | –
N/N=C1/c2cc(-c3ccc(C(=O)O)cc3)ccc2-n2c1nc1ccccc1c2=O | 22 | 61.1 | 62.2 | 54.3 | –
N/N=C1/c2cc(I)ccc2-n2c1nc1ccccc1c2=O | 24.9 | 44.9 | 43.4 | 51.1 | –
COc1cccc(/C=N/N=C2/c3cc(F)ccc3-n3c2nc2ccccc2c3=O)c1O | 21.1 | 35.5 | 31.2 | 34.3 | –
CC(/C=C(\O)c1ccccc1)=N\N=C1\c2cc(Cl)ccc2-n2c1nc1ccccc1c2=O | 12.5 | 19.7 | 18.1 | 23.6 | 71
N/N=C1/c2cc([N+](=O)[O-])ccc2-n2c1nc1ccccc1c2=O | 27.3 | 53.6 | 45.6 | 50.3 | –
N/N=C1/c2cc(Cl)ccc2-n2c1nc1ccccc1c2=O | 19.9 | 67.5 | 62.1 | 55.7 | –

Stronger by IC50 [1], values ahead:

IC50 [1] [µM] | SMILES | IC50 (MCF7) [µM] | IC50 (A549) [µM] | IC50 (HeLa) [µM] | IC50 (HEK293) [µM]
10.9 | COc1cccc(/C=N/N=C2/c3cc(I)ccc3-n3c2nc2ccccc2c3=O)c1O | 30.4 | 32.3 | 29.2 | –
5.31 | COc1cccc(/C=N/N=C2/c3cc(-c4ccc(C(=O)O)cc4)ccc3-n3c2nc2ccccc2c3=O)c1O | 37.1 | 39.2 | 32.3 | –
4.98 | COc1cccc(/C=N/N=C2/c3cc(-c4ccncc4)ccc3-n3c2nc2ccccc2c3=O)c1O | 24.8 | 32.9 | 24.8 | –
6.23 | CC(/C=C(\O)c1ccccc1)=N\N=C1\c2cc(-c3ccncc3)ccc2-n2c1nc1ccccc1c2=O | 11.6 | 6.01 | 12.2 | 76.1
5.02 | CC(/C=C(\O)c1ccccc1)=N\N=C1\c2cc(-c3ccc(C(=O)O)cc3)ccc2-n2c1nc1ccccc1c2=O | 9.42 | 7.19 | 9.42 | 64.1
3.48 | O=C1O[C@H]([C@@H](O)CO)C(O)=C1O [ASCORBIC ACID] | – | – | – | –
